Laboratory results taken from US8129371B2, “Thienopyrimidine and pyrazolopyrimidine compounds and their use as mTOR kinase and PI3 kinase inhibitors” (Wyeth LLC, priority 2007, dated 2012).
Where two headings read alike, the source gives them in different places.

Experiments:
PI3K [1] = molecular target: T1, PI3K (Homo sapiens, UniProt P48736); experiment: Fluorescence polarization assay for PI3K; format: biochemical; settings: read-out: PI3 Kinase γ IC50
T1 construct: PI3 Kinase γ IC50; other: PI3 Kinase γ; other: PI3 Kinase γ isoform, fluorescence polarization
T1 sequence (P48736 whole entry, canonical isoform): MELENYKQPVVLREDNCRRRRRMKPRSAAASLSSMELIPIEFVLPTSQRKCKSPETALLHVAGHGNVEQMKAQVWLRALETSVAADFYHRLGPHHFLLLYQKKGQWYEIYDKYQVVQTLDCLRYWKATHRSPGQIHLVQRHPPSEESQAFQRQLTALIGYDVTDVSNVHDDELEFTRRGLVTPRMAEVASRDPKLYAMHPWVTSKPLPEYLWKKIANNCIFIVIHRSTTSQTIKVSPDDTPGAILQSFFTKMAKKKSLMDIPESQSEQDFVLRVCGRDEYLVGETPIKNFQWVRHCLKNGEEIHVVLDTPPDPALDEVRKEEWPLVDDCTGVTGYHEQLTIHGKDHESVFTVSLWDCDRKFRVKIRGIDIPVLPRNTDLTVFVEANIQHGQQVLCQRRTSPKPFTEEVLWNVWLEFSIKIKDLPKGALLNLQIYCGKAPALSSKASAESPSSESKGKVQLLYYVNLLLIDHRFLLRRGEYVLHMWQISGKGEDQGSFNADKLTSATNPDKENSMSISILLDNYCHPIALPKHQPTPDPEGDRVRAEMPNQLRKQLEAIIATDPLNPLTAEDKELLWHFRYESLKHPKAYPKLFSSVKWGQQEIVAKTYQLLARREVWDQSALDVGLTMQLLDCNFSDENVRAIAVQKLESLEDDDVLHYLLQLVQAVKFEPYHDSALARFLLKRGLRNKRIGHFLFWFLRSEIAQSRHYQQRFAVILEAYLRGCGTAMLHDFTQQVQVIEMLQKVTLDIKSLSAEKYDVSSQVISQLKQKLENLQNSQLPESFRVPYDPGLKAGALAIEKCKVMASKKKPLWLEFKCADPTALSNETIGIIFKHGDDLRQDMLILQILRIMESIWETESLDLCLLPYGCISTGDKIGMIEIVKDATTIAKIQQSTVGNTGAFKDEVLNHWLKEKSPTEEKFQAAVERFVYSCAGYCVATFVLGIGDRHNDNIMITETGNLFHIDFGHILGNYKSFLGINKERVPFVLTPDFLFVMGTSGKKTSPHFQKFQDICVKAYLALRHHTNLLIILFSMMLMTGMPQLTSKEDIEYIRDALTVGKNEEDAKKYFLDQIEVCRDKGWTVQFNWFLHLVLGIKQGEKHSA
Procedure, shortened: (§1)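 PI3K was preincubated with compound (final DMSO 1%), and the reaction was started with PIP2/ATP substrate and run 30–60 min. It was stopped with a detector mix giving 10 nM red probe and 70 nM GST-GRP.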

PI3K [2] = molecular target: T2, PI3K (Homo sapiens, UniProt P42336); experiment: Fluorescence polarization assay for PI3K; format: biochemical; settings: read-out: PI3 Kinase α IC50
T2 construct: PI3 Kinase α IC50; other: PI3 Kinase α; other: PI3 Kinase α isoform, fluorescence polarization
T2 sequence (P42336 whole entry, canonical isoform): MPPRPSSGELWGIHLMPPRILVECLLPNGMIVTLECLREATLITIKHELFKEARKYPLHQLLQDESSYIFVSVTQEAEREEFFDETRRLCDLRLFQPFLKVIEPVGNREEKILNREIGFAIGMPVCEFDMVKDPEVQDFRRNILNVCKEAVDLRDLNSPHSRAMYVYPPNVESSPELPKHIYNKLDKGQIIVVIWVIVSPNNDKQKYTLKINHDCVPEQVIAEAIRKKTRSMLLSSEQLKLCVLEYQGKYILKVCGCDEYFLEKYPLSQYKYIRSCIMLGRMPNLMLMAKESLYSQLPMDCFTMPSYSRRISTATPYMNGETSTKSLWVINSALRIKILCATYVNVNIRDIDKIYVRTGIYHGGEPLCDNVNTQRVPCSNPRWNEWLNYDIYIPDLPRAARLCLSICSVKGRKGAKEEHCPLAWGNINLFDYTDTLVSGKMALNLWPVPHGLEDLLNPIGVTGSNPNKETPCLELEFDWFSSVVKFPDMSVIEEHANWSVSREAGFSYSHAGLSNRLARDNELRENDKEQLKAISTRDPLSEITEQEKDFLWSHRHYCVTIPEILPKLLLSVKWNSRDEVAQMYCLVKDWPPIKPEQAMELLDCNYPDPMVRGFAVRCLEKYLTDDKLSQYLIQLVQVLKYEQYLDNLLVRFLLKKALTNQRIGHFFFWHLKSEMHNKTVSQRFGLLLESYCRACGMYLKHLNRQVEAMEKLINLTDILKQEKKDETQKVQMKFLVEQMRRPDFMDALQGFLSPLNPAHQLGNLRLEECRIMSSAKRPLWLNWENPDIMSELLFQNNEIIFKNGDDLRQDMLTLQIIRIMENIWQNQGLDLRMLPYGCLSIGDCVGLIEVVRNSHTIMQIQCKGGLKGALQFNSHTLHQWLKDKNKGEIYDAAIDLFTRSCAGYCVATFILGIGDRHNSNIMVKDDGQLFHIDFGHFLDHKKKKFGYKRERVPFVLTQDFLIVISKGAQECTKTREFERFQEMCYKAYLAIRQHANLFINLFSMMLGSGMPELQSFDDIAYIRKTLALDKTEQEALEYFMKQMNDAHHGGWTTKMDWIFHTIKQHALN
Procedure, shortened: as §1

prostate line LNCap = experiment: In vitro cell culture growth assay (MTS), LNCap; format: cell-based; settings: Homo sapiens, LNCaP, 72 h, LNCap cells, three days after drug treatment
Procedure, shortened: (§2)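 Following a one-day attachment period, cells received inhibitors for 3 days. MTS metabolism by viable cells was quantified at 490 nm absorbance and converted to percent of same-plate vehicle control growth.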

Human mTOR (FLAG-TOR) = molecular target: T3, Human mTOR (FLAG-TOR) (Homo sapiens, UniProt P42345); experiment: Human mTOR kinase assay with purified enzyme, DELFIA format; format: biochemical
T3 construct: FLAG
Procedure, shortened: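 Purified FLAG-mTOR in HEPES pH 7.4 buffer with 10 mM MnCl2 was preincubated with inhibitor and reacted 2 h at room temperature with His6-S6K substrate, then stopped with EDTA/EGTA. Phospho-T389 S6K detected by DELFIA with Eu-labelled antibody (40 ng/mL) after plate capture; inhibition computed from signal.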

breast line MDA468 = experiment: In vitro cell culture growth assay (MTS), MDA468; format: cell-based; settings: Homo sapiens, 72 h, MDA468 cells, three days after drug treatment
Procedure, shortened: as §2

[3] = PI3 Kinase γ isoform, fluorescence polarization
[4] = PI3 Kinase α isoform, fluorescence polarization
[5] = purified human mTOR enzyme, DELFIA format

SMILES	IC50 (PI3K [1]; PI3 Kinase γ) [nM]	IC50 (PI3K [2]; PI3 Kinase α) [nM]	IC50 (prostate line LNCap) [nM]	IC50 (Human mTOR (FLAG-TOR)) [nM]	IC50 (breast line MDA468) [nM]	IC50 (PI3K [1]; [3]) [nM]	IC50 (PI3K [2]; [4]) [nM]	IC50 (Human mTOR (FLAG-TOR); [5]) [nM]
COC(=O)N1CCC(n2ncc3c(N4CC5CCC(C4)O5)nc(-c4ccc(NC(=O)Nc5cccc(CO)c5)cc4)nc32)CC1 [Example 171, methyl 4-{6-[4-({[3-(hydroxymethyl)phenyl]carbamoyl}amino)phenyl]-4-(8-oxa-3-azabicyclo[3.2.1]oct-3-yl)-1H-pyrazolo[3,4-d]pyrimidin-1-yl}piperidine-1-carboxylate]	1830	54	5	0.215	8	–	–	–
CCn1nc(N2CCN(C)CC2)c2c(N3CC4CCC(C3)O4)nc(-c3ccc(NC(=O)NC)cc3)nc21 [Example 348, 1-{4-[1-ethyl-3-(4-methylpiperazin-1-yl)-4-(8-oxa-3-azabicyclo[3.2.1]oct-3-yl)-1H-pyrazolo[3,4-d]pyrimidin-6-yl]phenyl}-3-methylurea]	–	–	280	–	1000	8590	1010	7.5
CC(C)(C)n1ncc2c(N3CC4CCC(C3)O4)nc(-c3ccc(NC(=O)Nc4cccnc4)cc3)nc21 [Example 100]	794	149	20	0.63	130	–	–	–
O=C(Nc1ccc(-c2nc(N3C[C@@H]4C[C@H]3CO4)c3cnn(CC(F)(F)F)c3n2)cc1)Nc1ccc(N2CCOCC2)cc1 [Example 298, 1-(4-morpholin-4-ylphenyl)-3-(4-{4-[(1S,4S)-2-oxa-5-azabicyclo[2.2.1]hept-5-yl]-1-(2,2,2-trifluoroethyl)-1H-pyrazolo[3,4-d]pyrimidin-6-yl}phenyl)urea]	–	–	< 1	–	1	10400	1220	1.25
CN(C)CCn1ncc2c(N3CC4CCC(C3)O4)nc(-c3ccc(NC(=O)OCCO)cc3)nc21 [Example 158, 2-hydroxyethyl (4-{1-[2-(dimethylamino)ethyl]-4-(8-oxa-3-azabicyclo[3.2.1]oct-3-yl)-1H-pyrazolo[3,4-d]pyrimidin-6-yl}phenyl)carbamate]	> 10000	3520	680	27	5000	–	–	–
CNC(=O)Nc1ccc(-c2nc(N3CC4CCC(C3)O4)c3cnn([C@H]4CC[C@H](OC)CC4)c3n2)cc1 (relative stereo) [Example 386, 1-{4-[1-(trans-4-methoxycyclohexyl)-4-(8-oxa-3-azabicyclo[3.2.1]oct-3-yl)-1H-pyrazolo[3,4-d]pyrimidin-6-yl]phenyl}-3-methylurea]	–	–	2	–	37	7440	1170	0.375
COC(=O)N1CCC(n2ncc3c(N4C5CCC4COC5)nc(-c4ccc(NC(=O)OCCO)cc4)nc32)CC1 [Example 355, methyl 4-[6-(4-{[(2-hydroxyethoxy)carbonyl]amino}phenyl)-4-(3-oxa-8-azabicyclo[3.2.1]oct-8-yl)-1H-pyrazolo[3,4-d]pyrimidin-1-yl]piperidine-1-carboxylate]	–	–	58	–	220	6800	7450	0.775
O=C(Nc1ccc(-c2nc(N3CC4CCC(C3)O4)c3cnn(C4CCC5(CC4)OCCO5)c3n2)cc1)OCCO [Example 121, 2-hydroxyethyl {4-[1-(1,4-dioxaspiro[4.5]dec-8-yl)-4-(8-oxa-3-azabicyclo[3.2.1]oct-3-yl)-1H-pyrazolo[3,4-d]pyrimidin-6-yl]phenyl}carbamate]	> 10000	7650	2	0.5	63	–	–	–
CCn1ncc2c(N3CC4CCC(C3)O4)nc(-c3ccc(NC(=O)Nc4ccc(N)nc4)cc3)nc21 [Example 287, 1-(6-aminopyridin-3-yl)-3-{4-[1-ethyl-4-(8-oxa-3-azabicyclo[3.2.1]oct-3-yl)-1H-pyrazolo[3,4-d]pyrimidin-6-yl]phenyl}urea]	1460	164	37	0.41	200	–	–	–
